Measured values: paper PMC12459020, “Chemical Probes that Target a Dissociative LuxR-Type Quorum Sensing Receptor in Gram-Negative Bacteria” (ACS Chemical Biology, 2025)
Where two headings read alike, the source gives them in different places.

Legend:
[1] = target: ExpR2 (Pectobacterium versatile, UniProt Q1A4U9); experiment: E. coli GFP reporter with ExpR2-activated promoter (prsmA); type: cell-based, Pectobacterium versatile Ecc71
From the text: One difference between our prior study in ExpR1/2 and that reported here in EsaR is that the former relied on QS-controlled phenotypes in P. versatile Ecc71 (i.e., cellulase and pectate lyase activity) to measure compound activity, unlike the heterologous transcriptional reporters used for EsaR. To further investigate the differences in antagonism assay data observed between EsaR and ExpR1/2, an E. coli reporter was created with an ExpR2 protein production plasmid (pJN105-expR2) and a reporter plasmid with an ExpR2-activated promoter (prsmA) controlling GFP (see Methods section). […] We return to possible explanations for the differences observed between the ExpR2 phenotypic assays and transcriptional reporters below.
Supporting Information — Stoutland et al.
Additional experimental methods.
Plasmid and reporter strain construction for ExpR2 reporters
Gibson assembly was used to create all constructs. Strains, plasmids and primers are listed in Ta b l es S1 and S2. Plasmid pJN105-expR2 was created by amplifying expR2 from Pectobacterium versatile Ecc71 genomic DNA and inserting it into pJN105, amplified from pJN105-esaR. […] E. coli reporter strains were created by transforming pJN105-expR2 and prsmA:GFP into electrocompetent E. coli JLD271.
E. coli ExpR2 reporter assay
Single colonies of the reporter strain were used to inoculate LB medium supplemented with appropriate antibiotics, and these cultures were grown overnight at 37 °C with shaking at 200 rpm.
Overnight cultures were diluted 1:10 in LB medium with appropriate antibiotics and grown at 37 °C to an OD600 of 0.22–0.27 before induction with 0.4 mg/mL arabinose. Arabinose concentration was optimized to maximize dynamic range of reporter data. Compounds were dissolved in DMSO, and 2 µL of this stock, or DMSO as a negative control, was added to each well of a clear-bottom, black 96-well plate prior to adding 198 µL of induced culture. Plates were incubated at 37 °C with shaking at 200 rpm for 3.5 hr. Assays were performed in technical and biological triplicate. Each well was mixed by pipetting before reading fluorescence and OD600. EC50 values were calculated based on a nonlinear regression of log(concentration) vs. response - variable slope (four parameters) using GraphPad Prism 9 software.

[2] = tested on: ExpR2; details: cited from earlier work; for ExpR2 antagonism (percent inhibition): 5 µM compound against 5 µM OHHL, negative values indicate potential activators; for ExpR2 [%] (agonism, percent activation): compounds at 200 μM, cellulase activity in P. versatile AC5099, ref Palmer et al., 2011 (main ref 44, SI ref 6)
[3] = target: T1, EsaR (Pantoea stewartii subsp. stewartii, UniProt P54293); experiment: cell-based; details: for activation at 100 µM / inhibition at 100 µM: 3.5 h; for activation at 100 µM: read-out: EsaR-repressed (pesaR) [%] agonism; for inhibition at 100 µM: read-out: EsaR-repressed (pesaR) antagonism
T1 construct: expressed in transfected cells; host or cells: E. coli JLD271 (K12 ΔsdiA), arabinose-induced pJN105-esaR
Procedure, shortened: (§1)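 E. coli carrying arabinose-induced esaR plus pesaS (activated) or pesaR (repressed) promoter fused to lux or GFP; P. stewartii ESN51 GFP reporters also used.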

[4] = tested on: LuxR; details: cited from earlier work; for LuxR antagonism: 5 µM compound against 5 µM OHHL, negative values indicate potential activators, ref 6 (SI; Palmer et al., 2011); for LuxR [%] (agonism, activation): compounds at 200 μM, luminescence in V. fischeri ES114 (ΔluxI), ref Palmer et al., 2011 (main ref 44, SI ref 6)
[5] = target: T1, EsaR; experiment: cell-based; details: for activation at 100 µM / inhibition at 100 µM: 3.5 h; for activation at 100 µM: read-out: EsaR-activated (pesaS) [%] agonism; for inhibition at 100 µM: read-out: EsaR-activated (pesaS) antagonism; for EsaR agonism, in words: E. coli EsaR reporters, primary screen at 100 μM
Procedure, shortened: as §1

[6] = tested on: ExpR1; details: cited from earlier work; for ExpR1 antagonism: 5 µM compound against 5 µM OHHL, negative values indicate potential activators, ref 6 (SI; Palmer et al., 2011); for ExpR1 [%] (agonism, activation): compounds at 200 μM, cellulase activity in P. versatile AC5117, ref Palmer et al., 2011 (main ref 44, SI ref 6)
[7] = tested on: P. stewartii ΔesaI (ESN51); experiment: Mucoidy (exopolysaccharide) phenotypic assay on CPG agar; type: cell-based, Pantoea stewartii
From the text: In P. stewartii, EsaR regulates the production of the exopolysaccharide stewartan, which clogs the xylem of infected plants and leads to the wilt and lesions characteristic of Stewart’s wilt. EsaR binds directly to the rcsA promoter to repress transcription at low cell density, and when this repression is relieved at high cell density, RcsA contributes to activation of the cps gene cluster, which encodes the stewartan biosynthetic pathway. Exopolysaccharide production can be visualized by the growth of mucoid colonies on casamino acid-peptone-glucose (CPG) agar plates, and this phenotypic assay is commonly used to evaluate EsaR-mediated QS in P. stewartii. , To investigate the ability of the synthetic EsaR agonists uncovered here to regulate a QS-controlled phenotype in P. stewartii, selected compounds were tested for their ability to induce mucoidy in the P. stewartii (ΔesaI) strain, ESN51 (Figure ).
P. stewartii ΔesaI (ESN51) was grown on Casamino Peptone Glucose (CPG) agar (1 g/L casamino acids, 10 g/L peptone, 10 g/L glucose, 17 g/L agar) supplemented with a 1:1000 dilution of compound stocks or DMSO. Plates were incubated at 28 °C for 2 days without shaking before imaging with a smartphone camera (Apple iPhone X). Images are representative of at least two biological replicates.

[8] = tested on: P. stewartii ESN51; type: cell-based, Pantoea stewartii; details: OD600; 100 µM–1 mM tested
From the text: We were curious whether the EsaR agonists identified in the E. coli reporters were also active in EsaR’s native host organism. In past studies, some E. coli LuxR-type receptor reporters have yielded EC50 values for exogenous ligands that differ by orders of magnitude relative to reporters constructed in native bacteria. Overexpression of LuxR-type receptors in E. coli has been proposed to lead to increased DNA binding and an overestimation of associative receptor sensitivity to agonists, as measured with lower EC50 values. However, because dissociative LuxR-type receptors bind to DNA in the absence of ligand, high receptor expression could instead lead to an underestimate of agonism. To account for any unintended effects of the E. coli genetic background and test compound activity at native levels of EsaR, we created genetic reporters in P. stewartii (see above and Methods section for details).
Supporting Information — Stoutland et al. […]
interesting that constitutive activituy (uninduced) from pesaR promoter is so much 2 4 6 […]
ESN51 pesaR-AC:GFP ESN51 pesaR:GFP
Figure S1. Luminescence inhibition, dynamic range, and growth of reporter strains. […]
(also on this page, place not known: 102 104 106 percent activation (GFP/OD600 - JLD)/3OC6 Normalized luminescence ✱✱✱✱✱✱✱✱ controls GFP/OD600 pesaS OD600 GAF 0.3 0.4 OD600 1mM 300µM)

[9] = target: T1, EsaR; experiment: P. stewartii ESN51 (ΔesaI) GFP reporter with EsaR-repressed promoter (pesaR); type: cell-based
From the text: (§2) EsaR transcriptional activation and repression were examined using E. coli and P. stewartii reporters (strains and plasmids listed in Table S1; see Methods section for assay details). […] We constructed reporters in E. coli based on previously reported EsaR reporters (Table S1). Each strain contained an EsaR expression plasmid (pJN105-esaR) and a reporter plasmid with either an EsaR-activated promoter (pesaS) or an EsaR-repressed promoter (pesaR) upstream of luxABCDE or GFP.
(§3) Gibson assembly was used to create all constructs. Plasmid pJN105-esaR was created by amplifying esaR from pAC-esaR and inserting it into pJN105. pesaSlux was created by inserting pesaS, amplified from pPesaR-AC:gfp, into the pCS-pesaRlux backbone. The pesaR promoter was amplified from pCS-pesaRlux and inserted into the pPesaR-AC:gfp backbone to create pesaR:GFP. P. stewartii reporter strains were created by transforming pesaR:GFP or pPesaR-AC:gfp into ESN51 by conjugation using E. coli S17 λpir as the donor strain. See SI for details of E. coli ExpR2 reporter construction.
(§4) Compound stocks were prepared and plated as described for E. coli reporter assays. […] Cultures were diluted to an OD600 of 0.05, and 198 μL was added to each well of a clear-bottom, black 96-well plate and incubated for 6 h at 28 °C (200 rpm) before reading fluorescence and OD600.

[10] = target: T1, EsaR; experiment: P. stewartii ESN51 (ΔesaI) GFP reporter with EsaR-activated promoter (pesaS); type: cell-based
From the text: as §2, §3, §4

[11] = ref 6 (SI; Palmer et al., 2011)
[12] = previously reported phenotypic reporter data, ref 6 (SI; Palmer et al., 2011)
[13] = 10 μM in CPG agar, ESN51, 2 days at 28 °C
[14] = 100 μM in CPG agar, ESN51, 2 days at 28 °C

ExpR2 (Pectobacterium versatile, UniProt Q1A4U9), sequence (Q1A4U9 entry or part of it): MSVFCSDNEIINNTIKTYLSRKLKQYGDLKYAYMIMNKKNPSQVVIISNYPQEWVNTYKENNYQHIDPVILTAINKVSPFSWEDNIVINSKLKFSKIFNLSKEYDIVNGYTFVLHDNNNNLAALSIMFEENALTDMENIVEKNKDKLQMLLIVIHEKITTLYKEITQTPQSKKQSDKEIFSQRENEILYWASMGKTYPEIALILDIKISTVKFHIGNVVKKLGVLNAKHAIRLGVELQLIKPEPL
T1 sequence (P54293 whole entry): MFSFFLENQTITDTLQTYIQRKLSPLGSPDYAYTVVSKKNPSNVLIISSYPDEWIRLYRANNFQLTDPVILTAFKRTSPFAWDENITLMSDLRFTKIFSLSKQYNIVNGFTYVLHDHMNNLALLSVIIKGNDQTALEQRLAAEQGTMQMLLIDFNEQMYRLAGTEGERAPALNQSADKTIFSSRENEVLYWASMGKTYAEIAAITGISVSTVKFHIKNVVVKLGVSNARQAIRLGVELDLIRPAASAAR

Compound	ExpR2 agonism, in words ([1]; E. coli ExpR2 GFP reporter)	ExpR2 antagonism (percent inhibition) [2, 11] [%]	ExpR2 [%] (agonism, percent activation) [2]	activation at 100 µM [3] [%]	inhibition at 100 µM [3] [%]	LuxR antagonism [4] [%]	LuxR [%] (agonism, activation) [4]	activation at 100 µM [5] [%]	inhibition at 100 µM [5] [%]	ExpR1 antagonism [6] [%]	ExpR1 [%] (agonism, activation) [6]	EC50 [3] [nM]	EC50 [5] [nM]	induction of mucoidy [7, 13]	other results
O=C(CCc1ccc(Br)cc1)N[C@H]1CCOC1=O [B7, 4-Br phenylpropanoyl HL]	behaved as an agonist	66	8	66	-36	80	2	56	-50	78	3	–	–	–	IC50 [2, 12]: 2750 nM; EsaR agonism, in words [5]: agonized EsaR
O=C(Cc1cccc([N+](=O)[O-])c1)N[C@H]1CCOC1=O [C14, 3-NO2 PHL]	acted as agonists	-4	103	22	-3	-18	130	62	-56	-15	115	≥ 98000	≥ 68000	–	EC50 [1]: 160 nM; fold less potent than OHHL in ExpR2 E. coli reporter ([1]; E. coli ExpR2 GFP reporter): approximately 40 fold; EC50 [2, 12]: 500 nM; EsaR agonism, in words [5]: moderate activator
O=C1OCC[C@@H]1NS(=O)(=O)c1cccc(Cl)c1 [GAF 28]	–	–	–	–	–	–	–	–	–	–	–	2200	2200	induced mucoidy	–
O=C1OCC[C@@H]1NS(=O)(=O)c1ccc(Br)cc1 [GAF 35]	–	–	–	–	–	–	–	–	–	–	–	23000	23000	–	growth inhibition in P. stewartii ESN51 reporters [8]: Growth inhibition; EC50 [9]: 27000 nM; EC50 [10]: 24000 nM
O=C1OCC[C@H]1NS(=O)(=O)c1ccc(Cl)c(Cl)c1 [GAF 55]	–	–	–	–	–	–	–	–	–	–	–	–	–	–	EsaR agonism at 100 μM (bound stated in text) ([5]; 100 μM, E. coli EsaR reporter): less than 50%; induction of mucoidy ([7]; concentration not given, CPG agar, ESN51): did not induce mucoidy
O=C1OCC[C@@H]1NS(=O)(=O)c1ccccc1 [GAF 57]	–	–	–	–	–	–	–	–	–	–	–	–	–	not at 10 μM	induction of mucoidy [7, 14]: induced mucoidy
O=C1OCC[C@@H]1NS(=O)(=O)c1ccc(Cl)c(F)c1 [GAF 64, 3-F, 4-Cl BSHL]	–	–	–	–	–	–	–	–	–	–	–	–	–	–	growth inhibition in P. stewartii ESN51 reporters [8]: Growth inhibition; EC50 [9]: 6700 nM; EC50 [10]: 2700 nM
CCCCCC(O)CC(=O)N[C@H]1CCOC1=O (some centres unmarked) [H2]	–	–	–	–	–	–	–	–	–	–	–	–	–	not at 10 μM	fold less potent than OOHL in EsaR ([5]; E. coli EsaR reporter EC50 values): ~20 fold; induction of mucoidy [7, 14]: induced mucoidy
CCCC(=O)CC(=O)N[C@H]1CCOC1=O [OHHL, 3-oxo-hexanoyl HL, reference compound]	acted as agonists	0	100	100	0	0	100	100	0	0	100	–	–	smooth	EC50 [1]: 3.9 nM; EC50 [2, 12]: 2000 nM
